ChEMBL document CHEMBL1201862, “PubChem BioAssay data set” (2004)
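Compound exposure: 48 hours, 5 concentrations, 96-well plates. At the GI50, growth is halved.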 The source made the active and inactive calls. Rule as the data show it: active = GI50 up to about 1.1 µM and inactive = higher.

Tests used:
Experiment in all cases: NCI anticancer screen, dose series, 48 h
786-0 = system: 786-0
A498 = system: A498
A549 = system: A549
ACHN = system: ACHN
CAKI-1 = system: CAKI-1
CCRF-CEM = system: CCRF-CEM
COLO 205 = system: COLO 205
DLD-1 = system: DLD-1
DMS-114 = system: DMS-114
DMS-273 = system: DMS-273
EKVX = system: EKVX
HCC 2998 = system: HCC 2998
HCT-116 = system: HCT-116
HCT-15 = system: HCT-15
HL-60 = system: HL-60
HOP-18 = system: HOP-18
HOP-62 = system: HOP-62
HOP-92 = system: HOP-92
HT-29 = system: HT-29
IGROV-1 = system: IGROV-1
K562 = system: K562
KM-20L2 = system: KM-20L2
KM12 = system: KM12
LOX IMVI = system: LOX IMVI
LXFL 529 = system: LXFL 529
M14 = system: M14
M19-MEL = system: M19-MEL
MOLT-4 = system: MOLT-4
Malme-3M = system: Malme-3M
NCI-H226 = system: NCI-H226
NCI-H23 = system: NCI-H23
NCI-H460 = system: NCI-H460
NCI-H522 = system: NCI-H522
OVCAR-3 = system: OVCAR-3
OVCAR-4 = system: OVCAR-4
OVCAR-5 = system: OVCAR-5
OVCAR-8 = system: OVCAR-8
RPMI-8226 = system: RPMI-8226
RXF 393 = system: RXF 393
RXF 631 = system: RXF 631
SF-268 = system: SF-268
SF-295 = system: SF-295
SF-539 = system: SF-539
SK-MEL-28 = system: SK-MEL-28
SK-MEL-2 = system: SK-MEL-2
SK-MEL-5 = system: SK-MEL-5
SK-OV-3 = system: SK-OV-3
SN12C = system: SN12C
SNB-19 = system: SNB-19
SNB-75 = system: SNB-75
SNB-78 = system: SNB-78
SW-620 = system: SW-620
TK-10 = system: TK-10
U-251 = system: U-251
UACC-257 = system: UACC-257
UACC-62 = system: UACC-62
UO-31 = system: UO-31
SR = system: SR

## CC(=O)OCC1OC(n2c(=O)n(-c3ccccc3)c(=O)c3ccccc32)C(OC(C)=O)C(OC(C)=O)C1OC(C)=O (stereo not drawn)
786-0
  GI50: > 100 µM (inactive)
A498
  GI50: > 100 µM (inactive)
A549
  GI50: > 100 µM (inactive)
ACHN
  GI50: > 100 µM (inactive)
CAKI-1
  GI50: > 100 µM (inactive)
CCRF-CEM
  GI50: 53.7 µM (inactive)
COLO 205
  GI50: > 100 µM (inactive)
DLD-1
  GI50: > 100 µM (inactive)
DMS-114
  GI50: > 100 µM (inactive)
DMS-273
  GI50: > 100 µM (inactive)
EKVX
  GI50: > 100 µM (inactive)
HCC 2998
  GI50: > 100 µM (inactive)
HCT-116
  GI50: 96.6 µM (inactive)
HCT-15
  GI50: > 100 µM
HL-60
  GI50: > 100 µM (inactive)
HOP-18
  GI50: > 100 µM (inactive)
HOP-62
  GI50: > 100 µM (inactive)
HOP-92
  GI50: > 100 µM (inactive)
HT-29
  GI50: > 100 µM (inactive)
IGROV-1
  GI50: > 100 µM (inactive)
K562
  GI50: > 100 µM (inactive)
KM-20L2
  GI50: > 100 µM (inactive)
KM12
  GI50: > 100 µM (inactive)
LOX IMVI
  GI50: > 100 µM (inactive)
LXFL 529
  GI50: > 100 µM (inactive)
M14
  GI50: > 100 µM (inactive)
M19-MEL
  GI50: > 100 µM (inactive)
MOLT-4
  GI50: > 100 µM (inactive)
Malme-3M
  GI50: > 100 µM (inactive)
NCI-H226
  GI50: > 100 µM (inactive)
NCI-H23
  GI50: > 100 µM (inactive)
NCI-H460
  GI50: > 100 µM (inactive)
NCI-H522
  GI50: > 100 µM (inactive)
OVCAR-3
  GI50: > 100 µM (inactive)
OVCAR-4
  GI50: > 100 µM (inactive)
OVCAR-5
  GI50: > 100 µM (inactive)
OVCAR-8
  GI50: > 100 µM (inactive)
RPMI-8226
  GI50: 73.8 µM (inactive)
RXF 393
  GI50: > 100 µM (inactive)
RXF 631
  GI50: > 100 µM (inactive)
SF-268
  GI50: > 100 µM (inactive)
SF-295
  GI50: > 100 µM (inactive)
SF-539
  GI50: > 100 µM (inactive)
SK-MEL-28
  GI50: > 100 µM (inactive)
SK-MEL-2
  GI50: > 100 µM (inactive)
SK-MEL-5
  GI50: > 100 µM (inactive)
SK-OV-3
  GI50: > 100 µM (inactive)
SN12C
  GI50: > 100 µM (inactive)
SNB-19
  GI50: > 100 µM (inactive)
SNB-75
  GI50: > 100 µM (inactive)
SNB-78
  GI50: > 100 µM (inactive)
SW-620
  GI50: > 100 µM (inactive)
TK-10
  GI50: > 100 µM (inactive)
U-251
  GI50: > 100 µM (inactive)
UACC-257
  GI50: > 100 µM (inactive)
UACC-62
  GI50: > 100 µM (inactive)
UO-31
  GI50: > 100 µM (inactive)

## O=C1N/C(=C\[N+](=O)[O-])c2ccccc21
786-0
  GI50: > 100 µM (inactive)
A498
  GI50: > 100 µM (inactive)
A549
  GI50: > 100 µM (inactive)
ACHN
  GI50: > 100 µM (inactive)
CCRF-CEM
  GI50: > 100 µM (inactive)
COLO 205
  GI50: > 100 µM (inactive)
DLD-1
  GI50: > 100 µM (inactive)
DMS-114
  GI50: > 100 µM (inactive)
DMS-273
  GI50: > 100 µM (inactive)
EKVX
  GI50: > 100 µM (inactive)
HCC 2998
  GI50: > 100 µM (inactive)
HCT-116
  GI50: > 100 µM (inactive)
HCT-15
  GI50: > 100 µM
HL-60
  GI50: > 100 µM (inactive)
HOP-18
  GI50: > 100 µM (inactive)
HOP-62
  GI50: > 100 µM (inactive)
HOP-92
  GI50: > 100 µM (inactive)
HT-29
  GI50: > 100 µM (inactive)
IGROV-1
  GI50: > 100 µM (inactive)
K562
  GI50: > 100 µM (inactive)
KM-20L2
  GI50: > 100 µM (inactive)
KM12
  GI50: > 100 µM (inactive)
LOX IMVI
  GI50: > 100 µM (inactive)
LXFL 529
  GI50: > 100 µM (inactive)
M14
  GI50: > 100 µM (inactive)
M19-MEL
  GI50: > 100 µM (inactive)
MOLT-4
  GI50: > 100 µM (inactive)
Malme-3M
  GI50: > 100 µM (inactive)
NCI-H226
  GI50: > 100 µM (inactive)
NCI-H23
  GI50: > 100 µM (inactive)
NCI-H460
  GI50: > 100 µM (inactive)
NCI-H522
  GI50: > 100 µM (inactive)
OVCAR-3
  GI50: > 100 µM (inactive)
OVCAR-4
  GI50: > 100 µM (inactive)
OVCAR-5
  GI50: > 100 µM (inactive)
OVCAR-8
  GI50: > 100 µM (inactive)
RPMI-8226
  GI50: > 100 µM (inactive)
RXF 393
  GI50: > 100 µM (inactive)
RXF 631
  GI50: > 100 µM (inactive)
SF-268
  GI50: > 100 µM (inactive)
SF-295
  GI50: > 100 µM (inactive)
SF-539
  GI50: > 100 µM (inactive)
SK-MEL-28
  GI50: > 100 µM (inactive)
SK-MEL-5
  GI50: > 100 µM (inactive)
SK-OV-3
  GI50: > 100 µM (inactive)
SN12C
  GI50: > 100 µM (inactive)
SNB-19
  GI50: > 100 µM (inactive)
SNB-75
  GI50: 25.9 µM (inactive)
SNB-78
  GI50: > 100 µM (inactive)
SR
  GI50: > 100 µM (inactive)
SW-620
  GI50: > 100 µM (inactive)
TK-10
  GI50: > 100 µM (inactive)
U-251
  GI50: > 100 µM (inactive)
UACC-257
  GI50: > 100 µM (inactive)
UACC-62
  GI50: > 100 µM (inactive)
UO-31
  GI50: > 100 µM (inactive)
